# Results from patent publication US6486164B2, “6-(4-arylalkylpiperazin-1-yl) benzodioxane and 6-(4-arylalkylpiperazin-1-yl) chromane derivatives: dopamine receptor subtype specific ligands” (Neurogen Corporation, priority 1998, dated 2002).
# Where a name gives a salt, the structure may show the parent alone. Read-outs that look alike come from different tables or passages of the source.
# Tests used:
# D2 receptors from human = biological target: T1, D2 receptors from human (Homo sapiens, UniProt P14416); assay: D2 receptor binding assay (3H-YM 09151-2 displacement)
# T1 construct: expressed in transfected cells; host or cells: COS cells
# T1 sequence (P14416 whole entry): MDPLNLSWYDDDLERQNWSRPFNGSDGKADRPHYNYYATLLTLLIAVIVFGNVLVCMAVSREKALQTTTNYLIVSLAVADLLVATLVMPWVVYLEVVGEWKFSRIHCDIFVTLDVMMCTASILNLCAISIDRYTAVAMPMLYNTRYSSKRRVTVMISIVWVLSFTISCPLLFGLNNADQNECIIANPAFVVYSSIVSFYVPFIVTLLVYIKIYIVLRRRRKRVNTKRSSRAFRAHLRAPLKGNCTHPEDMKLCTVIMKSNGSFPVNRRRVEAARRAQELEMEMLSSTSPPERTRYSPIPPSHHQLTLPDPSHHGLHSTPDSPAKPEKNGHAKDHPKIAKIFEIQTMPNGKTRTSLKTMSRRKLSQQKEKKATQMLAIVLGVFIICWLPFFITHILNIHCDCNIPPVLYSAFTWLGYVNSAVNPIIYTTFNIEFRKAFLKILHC
# Experimental: (§1) Pellets of COS cells containing recombinantly produced D2, D3 or D4 receptors from human are used for the assays. The sample is homogenized in 100 volumes (w/vol) of 0.05 M Tris HCl buffer at 4° C. and pH 7.4. The sample is then centrifuged at 30,000×g and resuspended and rehomogenized. The sample is then centrifuged as described and the final tissue sample is frozen until use. The tissue is resuspended 1:20 (wt/vol) in 0.05 M Tris HCl buffer containing 100 mM NaCl.
# D3 receptors from human = biological target: T2, D3 receptors from human (Homo sapiens, UniProt P35462); assay: D3 receptor binding assay (3H-YM 09151-2 displacement)
# T2 construct: expressed in transfected cells; host or cells: COS cells
# T2 sequence (P35462 whole entry): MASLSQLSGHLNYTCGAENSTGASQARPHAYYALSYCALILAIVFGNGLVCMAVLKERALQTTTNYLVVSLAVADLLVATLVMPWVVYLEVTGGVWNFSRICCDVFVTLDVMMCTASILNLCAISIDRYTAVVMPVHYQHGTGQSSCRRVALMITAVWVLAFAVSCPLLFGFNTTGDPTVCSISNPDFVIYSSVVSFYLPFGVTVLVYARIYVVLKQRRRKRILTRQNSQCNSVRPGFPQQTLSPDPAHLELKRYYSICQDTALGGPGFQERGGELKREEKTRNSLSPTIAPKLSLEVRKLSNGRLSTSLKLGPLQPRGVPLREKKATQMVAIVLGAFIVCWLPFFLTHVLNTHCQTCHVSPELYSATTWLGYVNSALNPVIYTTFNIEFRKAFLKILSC
# Experimental: as §1
# D4 receptors from human = biological target: T3, D4 receptors from human (Homo sapiens, UniProt P21917); assay: D4 receptor binding assay (3H-YM 09151-2 displacement)
# T3 construct: expressed in transfected cells; host or cells: COS cells
# T3 sequence (P21917 1-419): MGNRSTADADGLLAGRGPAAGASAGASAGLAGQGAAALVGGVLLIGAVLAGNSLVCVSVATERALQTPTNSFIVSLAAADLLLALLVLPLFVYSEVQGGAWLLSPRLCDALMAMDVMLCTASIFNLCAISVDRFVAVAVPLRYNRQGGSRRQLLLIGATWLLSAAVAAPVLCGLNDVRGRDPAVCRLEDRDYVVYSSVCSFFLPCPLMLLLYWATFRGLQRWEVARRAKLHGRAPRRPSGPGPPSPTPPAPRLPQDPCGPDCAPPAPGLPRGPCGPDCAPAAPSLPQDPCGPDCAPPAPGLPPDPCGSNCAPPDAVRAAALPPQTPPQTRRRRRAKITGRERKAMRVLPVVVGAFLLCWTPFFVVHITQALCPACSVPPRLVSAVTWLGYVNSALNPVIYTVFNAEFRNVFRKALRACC
# Experimental: as §1
# [1] = recombinant human receptor in COS cells, 0.5 nM 3H-YM 09151-2, read-out: D2 Ki
# [2] = recombinant human receptor in COS cells, 0.5 nM 3H-YM 09151-2, read-out: D3 Ki
# [3] = recombinant human receptor in COS cells, 0.5 nM 3H-YM 09151-2, read-out: D4 Ki
molecule,measurement,setting,value
COc1ccccc1CN1CCN(c2ccc3c(c2)OCCO3)CC1.O=C(O)C(=O)O,melting point,,143 °C
"Clc1ccc(CN2CCN(c3ccc4c(c3)OCCO4)CC2)cc1 (as salt: oxalate) [Compound 3, 1-(1,4-benzodioxan-6-yl)-4-(4-chlorobenzyl)piperazine oxalate]",melting point,,213 to 215 °C
Clc1cccc(CN2CCN(c3ccc4c(c3)OCCO4)CC2)c1.O=C(O)C(=O)O,melting point,,213 to 215 °C
Clc1ccccc1CN1CCN(c2ccc3c(c2)OCCO3)CC1.O=C(O)C(=O)O,melting point,,175 °C
1-(Chroman-6-yl)-4-(4-methylbenzyl)piperazine Oxalate [Compound 4],Ki,D2 receptors from human; [1],2.31 µM
same,Ki,D3 receptors from human; [2],2.99 µM
same,Ki,D4 receptors from human; [3],0.035 µM
"Clc1ccc(CN2CCN(c3ccc4c(c3)OCCO4)CC2)cc1 [Compound 3, 1-(1,4-benzodioxan-6-yl)-4-(4-chlorobenzyl)piperazine oxalate]",Ki,D2 receptors from human,> 4 µM
same,Ki,D3 receptors from human,2.63 µM
same,Ki,D4 receptors from human,0.025 µM
Cc1ccc(CN2CCN(c3ccc4c(c3)OCCO4)CC2)cc1.O=C(O)C(=O)O,melting point,,200 to 201 °C
Cl.c1ccc(CN2CCN(c3ccc4c(c3)OCCO4)CC2)cc1,melting point,,143 to 145 °C
"COc1cccc(CN2CCN(c3ccc4c(c3)OCCO4)CC2)c1 (as salt: oxalate) [Compound 2, 1-(1,4-benzodioxan-6-yl)-4-(3-methoxybenzyl)piperazine oxalate]",melting point,,213 to 215 °C
"COc1cccc(CN2CCN(c3ccc4c(c3)OCCO4)CC2)c1 [Compound 2, 1-(1,4-benzodioxan-6-yl)-4-(3-methoxybenzyl)piperazine oxalate]",Ki,D2 receptors from human; [1],2.59 µM
same,Ki,D3 receptors from human; [2],2.57 µM
same,Ki,D4 receptors from human; [3],0.037 µM
COc1ccc(CN2CCN(c3ccc4c(c3)OCCO4)CC2)cc1.O=C(O)C(=O)O,melting point,,193 to 195 °C
"Fc1ccc(CN2CCN(c3ccc4c(c3)OCCO4)CC2)cc1 [Compound 1, 1-(1,4-Benzodioxan-6-yl)-4-(4-fluorobenzyl)piperazine Oxalate]",Ki,D2 receptors from human,> 4 µM
same,Ki,D3 receptors from human,3.66 µM
same,Ki,D4 receptors from human,0.011 µM
